Measured values taken from patent publication US20170267667A1, “[…] AS NON-NUCLEOSIDE REVERSE TRANSCRIPTASE INHIBITORS FOR ANTI-HIV-1 CHEMOTHERAPY” (Purdue Research Foundation, priority 2016, published 2017).
pEC50, pIC50: −log10 of the molar value.

Columns and labels:
[1] = test system: HIV-1IIIB; test: MTT assay, HIV-1IIIB in MT-4 cells; type: cell-based; settings: for SI (CC50/EC50) MT-4 cells: CC50/EC50 ratio, HIV-1IIIB in MT-4 cells; for pEC50: Human immunodeficiency virus 1, MT4, inhibition of cytopathicity of HIV-1IIIB in MT-4 cells
Description: (§1) In Vitro Antiviral Assay. Evaluation of the antiviral activity of compounds against HIV- 1RF infection in CEM-SS cells was performed using the XTT cytoprotection assay, as previously described (Buckheit, R. W. Jr., et al., Antiviral Res. 1995, 26, 117-132). Evaluation of the antiviral activity of compounds against HIV-1IIIB and HIV-2ROD in MT-4 cells was performed using the MTT assay, as previously described (Rice, W. G. and Bader, J. P., Adv. Pharmacol. (San Diego) 1995, 33, 389-438).

[2] = test system: HIV-1RF; test: XTT cytoprotection assay, HIV-1RF infection in CEM-SS cells; type: cell-based; settings: for SI (CC50/EC50) CEM-SS cells: CC50/EC50 ratio, HIV-1RF in CEM-SS cells; for pEC50: Human immunodeficiency virus 1, inhibition of cytopathicity of HIV-1RF in CEM-SS cells
Description: as §1

[3] = Cytotoxicity for mock-infected CEM-SS cells; type: cell-based; settings: human
Description: as §1
(§2) Biological Results. The antiviral activities of the ADAMs were evaluated by determining their ability to inhibit the enzymatic activity of HIV-1 RT in vitro (IC50) and protect HIV-infected cells from the cytopathic effects (EC50) of two viral strains (HIV-1RF and HIV-1IIIB). The cytotoxicities (CC50) of the ADAMs were determined on CEM-SS cells and MT-4 cells.

[4] = biological target: HIV-1 reverse transcriptase (Human immunodeficiency virus type 1 group M subtype B, UniProt P04585); test: RT inhibition assay, incorporation of [32P]GTP into poly(rC)/oligo(dG) template primer; type: biochemical; settings: poly(rC):oligo(dG) as the template primer; mean of at least two experiments; read-out: IC50 inhibitory activity versus HIV-1 reverse transcriptase
Description: RT Inhibition Assay. Inhibition of purified recombinant reverse transcriptase was measured by the incorporation of [^32P]GTP into poly(rC)/oligo(dG) homopolymer template primers, as previously described (Cushman, M., et al., J. Med. Chem. 1996, 39, 3217-3227).

[5] = Cytotoxicity for mock-infected MT-4 cells; type: cell-based; settings: human
Description: as §1, §2

Compound | SI (CC50/EC50) MT-4 cells [1] | pEC50 [1] | SI (CC50/EC50) CEM-SS cells [2] | pEC50 [2] | CC50 [3] [µM] | pIC50 [4] | CC50 [5] [µM]
CON=C(F)c1cc(/C(=C\CCCc2nc(C)no2)c2ccc(C#N)cc2)cc(C)c1OC [ADAM 14, 5-[(1Z)-1-(4-Cyanophenyl)-5-(3-methyl-1,2,4-oxadiazol-5-yl)pent-1-en-1-yl]-N,2-dimethoxy-3-methylbenzenecarboximidoyl Fluoride] | 4 | 5.26 | 7 | 5.69 | 13.4 | 6.04 | 20.4
CON=C(Cl)c1cc(/C(=C\CCCc2nc(C)no2)c2ccc(C#N)cc2)cc(C)c1OC [ADAM 24, 5-[(1Z)-1-(4-Cyanophenyl)-5-(3-methyl-1,2,4-oxadiazol-5-yl)pent-1-en-1-yl]-N,2-dimethoxy-3-methylbenzenecarboximidoyl Chloride] | 35 | 5.56 | 7 | 5.60 | 16.9 | 7.00 | 97.5
CO/N=C(\Cl)CCC/C=C(\c1cc(C)c(OC)c(C(=O)SC)c1)c1cc(C)c2oc(=O)n(C)c2c1 [ADAM 26, S-Methyl 5-[(1E,6Z)-6-Chloro-1-(3,7-dimethyl-2-oxo-2,3-dihydro-1,3-benzoxazol-5-yl)-6-(methoxyimino)hex-1-en-1-yl]-2-methoxy-3-methylbenzenecarbothioate] | 109 | 6.27 | >23 | > 6.49 | 7.45 | 5.47 | 59
CON=C(Cl)c1cc(/C(=C\CCCc2nnc(C)o2)c2cc(C)c3oc(=O)n(C)c3c2)cc(C)c1OC [ADAM 16, 5-[(1E)-1-(3,7-Dimethyl-2-oxo-2,3-dihydro-1,3-benzoxazol-5-yl)-5-(5-methyl-1,3,4-oxadiazol-2-yl)pent-1-en-1-yl]-N,2-dimethoxy-3-methylbenzenecarboximidoyl Chloride] | 27 | 6.13 | 4 | 5.96 | 4.7 | 5.09 | 19.9
CON=C(F)c1cc(/C(=C\CCCN2CCOC2=O)c2cc(C)c3onc(OC)c3c2)cc(C)c1OC [ADAM 9, N,2-Dimethoxy-5-[(1Z)-1-(3-methoxy-7-methyl-1,2-benzoxazol-5-yl)-5-(2-oxo-1,3-oxazolidin-3-yl)pent-1-en-1-yl]-3-methylbenzenecarboximidoyl Fluoride] | – | < 4.58 | – | < 4.00 | 17.8 | 4.33 | 26.1
CON=C(Cl)c1cc(/C(=C\CCCc2nc(C)no2)c2cc(C)c3onc(OC)c3c2)cc(C)c1OC [ADAM 20, N,2-Dimethoxy-5-[(1Z)-1-(3-methoxy-7-methyl-1,2-benzoxazol-5-yl)-5-(3-methyl-1,2,4-oxadiazol-5-yl)pent-1-en-1-yl]-3-methylbenzenecarboximidoyl Chloride] | 5 | 5.38 | 7 | 5.77 | 11.4 | 5.10 | 21.2
CON=C(F)c1cc(/C(=C\CCCc2nnc(C)o2)c2cccc(C#N)c2)cc(C)c1OC [ADAM 10, 5-[(1Z)-1-(3-Cyanophenyl)-5-(5-methyl-1,3,4-oxadiazol-2-yl)pent-1-en-1-yl]-N,2-dimethoxy-3-methylbenzenecarboximidoyl Fluoride] | – | < 5.96 | – | < 4.00 | 1.8 | 4.43 | 1.07
